From patent US10550124B2, “Atropisomerism for increased kinase inhibitor selectivity” (SAN DIEGO STATE UNIVERSITY RESEARCH FOUNDATION, priority 2015, dated 2020)
pIC50: −log10 of the molar value.

Legend:
Type in all cases: biochemical
[1] = target: Abl (Homo sapiens, UniProt P00519); assay: Z′-LYTE kinase inhibition assay, Abl; details: for % inhibition: average of 2 runs
Text: (§1) All samples were sent out to Life Technologies to obtain kinase inhibition data. A brief description of the assays and analyses are included below.
(§2) Assay Theory (SelectScreen® Kinase Profiling Services (Life Technologies, Madison, Wis. USA). The Z′-LYTE® biochemical assay employs a fluorescence-based, coupled-enzyme format and is based on the differential sensitivity of phosphorylated and non-phosphorylated peptides to proteolytic cleavage. The peptide substrate is labeled with two fluorophores one at each end—that make up a FRET pair.
(§3) In the primary reaction, the kinase transfers the gamma-phosphate of ATP to a single tyrosine, serine or threonine residue in a synthetic FRET-peptide. In the secondary reaction, a site-specific protease recognizes and cleaves non-phosphorylated FRET-peptides.
(§4) Phosphorylation of FRET-peptides suppresses cleavage by the Development Reagent. Cleavage disrupts FRET between the donor (i.e., coumarin) and acceptor (i.e., fluorescein) fluorophores on the FRET-peptide, whereas uncleaved, phosphorylated FRET-peptides maintain FRET. A ratiometric method, which calculates the ratio (the Emission Ratio) of donor emission to acceptor emission after excitation of the donor fluorophore at 400 nm, is used to quantitate reaction progress, as shown in the equation below: […]
(§5) A significant benefit of this ratiometric method for quantitating reaction progress is the elimination of well-to-well variations in FRET-peptide concentration and signal intensities. As a result, the assay yields very high Z′-factor values (>0.7) at a low percent phosphorylation. Both cleaved and uncleaved FRET-peptides contribute to the fluorescence signals and therefore to the Emission Ratio. The extent of phosphorylation of the FRET-peptide can be calculated from the Emission Ratio. The Emission Ratio will remain low if the FRET-peptide is phosphorylated (i.e., no kinase inhibition) and will he high if the FRET-peptide is non-phosphorylated (i.e., kinase inhibition).

[2] = target: pdgfr-a (Homo sapiens, UniProt P16234); assay: Z′-LYTE kinase inhibition assay, pdgfr-a; details: average of 2 runs
Text: as §1, §2, §3, §4, §5

[3] = test system: panel of 18 tyrosine kinases; assay: Kinase inhibitor profiling across a panel of tyrosine kinases (selectivity); details: for S(40%): number of kinases inhibited greater than 40% divided by number of kinases tested (including Src)
Method: In order to probe the effect of atropisomeric conformation on kinase selectivity we subjected 1f, 2e, and 2f to kinase inhibitor profiling across a panel of tyrosine kinases at 1000 nM and 5000 nM (data for 2e shown in Scheme 4 below).
To analyze each analog's selectivity across the panel we turned to selectivity scores (Davis et al., Nat. Biotechnol. 2011, 29, 1046-51), simply the number of kinases inhibited above a certain threshold divided by the number of kinases evaluated. […] For example at 1000 nM 2e-(R) yielded an S(40%) of 0.11 while 2e-(S) gave an S(40%) of 0.16. […] Differences in selectivity between 2e-(R) and 2e-(S) at 5000 nM (4.5 times the IC50 of 2e-(S) toward Src) and for 5 at 1000 nM (6.25 times the IC50 of 5 toward Src) can be viewed graphically across tyrosine kinases (FIG. 3). Importantly, similar trends were also observed across each of the atropisomeric series tested.
as §1, §2, §3, §4, §5

[4] = target: Hck (Homo sapiens, UniProt P08631); assay: Z′-LYTE kinase inhibition assay, Hck; details: average of 2 runs
Text: as §1, §2, §3, §4, §5

[5] = target: CSK (Homo sapiens, UniProt P41240); assay: Z′-LYTE kinase inhibition assay, CSK; details: average of 2 runs
Text: as §1, §2, §3, §4, §5

[6] = target: Kit (Homo sapiens, UniProt P10721); assay: Z′-LYTE kinase inhibition assay, Kit; details: average of 2 runs
Text: as §1, §2, §3, §4, §5

[7] = target: EGFR (Homo sapiens, UniProt P00533); assay: Z′-LYTE kinase inhibition assay, EGFR; details: for % inhibition: average of 2 runs
Text: as §1, §2, §3, §4, §5

[8] = target: Alk (Homo sapiens, UniProt Q9UM73); assay: Z′-LYTE kinase inhibition assay, Alk; details: average of 2 runs
Text: as §1, §2, §3, §4, §5

[9] = target: Ret (Homo sapiens, UniProt P07949); assay: Z′-LYTE kinase inhibition assay, Ret; details: for % inhibition: average of 2 runs
Text: as §1, §2, §3, §4, §5

[10] = target: Fgr (Homo sapiens, UniProt P09769); assay: Z′-LYTE kinase inhibition assay, Fgr; details: average of 2 runs
Text: as §1, §2, §3, §4, §5

[11] = target: Yes (Homo sapiens, UniProt P07947); assay: Z′-LYTE kinase inhibition assay, Yes
Text: as §1, §2, §3, §4, §5

[12] = target: Src kinase (Homo sapiens, UniProt P12931); assay: Z′-LYTE kinase inhibition assay, Src
Text: Based on the observed stereochemical stabilities, we chose 1f, 2e, and 2f for further study and obtained inhibition data against Src kinase from Life Technologies' Z′-LYTE™ kinase assay (Scheme 3).
as §1, §2, §3, §4, §5

[13] = target: BTK (Homo sapiens, UniProt Q06187); assay: Z′-LYTE kinase inhibition assay, BTK; details: average of 2 runs
Text: as §1, §2, §3, §4, §5

[14] = target: Fyn (Homo sapiens, UniProt P06241); assay: Z′-LYTE kinase inhibition assay, Fyn; details: average of 2 runs
Text: as §1, §2, §3, §4, §5

[15] = target: Lck (Homo sapiens, UniProt P06239); assay: Z′-LYTE kinase inhibition assay, Lck; details: average of 2 runs
Text: as §1, §2, §3, §4, §5

[16] = target: Lyn (Homo sapiens, UniProt P07948); assay: Z′-LYTE kinase inhibition assay, Lyn; details: average of 2 runs
Text: as §1, §2, §3, §4, §5

[17] = target: pdgfr-b (Homo sapiens, UniProt P09619); assay: Z′-LYTE kinase inhibition assay, pdgfr-b; details: average of 2 runs
Text: as §1, §2, §3, §4, §5

[18] = target: Her-2 (Homo sapiens, UniProt P04626); assay: Z′-LYTE kinase inhibition assay, Her-2; details: average of 2 runs
Text: as §1, §2, §3, §4, §5

[19] = target: Blk (Homo sapiens, UniProt P51451); assay: Z′-LYTE kinase inhibition assay, Blk; details: average of 2 runs
Text: as §1, §2, §3, §4, §5

Chain of Abl (P00519 whole entry): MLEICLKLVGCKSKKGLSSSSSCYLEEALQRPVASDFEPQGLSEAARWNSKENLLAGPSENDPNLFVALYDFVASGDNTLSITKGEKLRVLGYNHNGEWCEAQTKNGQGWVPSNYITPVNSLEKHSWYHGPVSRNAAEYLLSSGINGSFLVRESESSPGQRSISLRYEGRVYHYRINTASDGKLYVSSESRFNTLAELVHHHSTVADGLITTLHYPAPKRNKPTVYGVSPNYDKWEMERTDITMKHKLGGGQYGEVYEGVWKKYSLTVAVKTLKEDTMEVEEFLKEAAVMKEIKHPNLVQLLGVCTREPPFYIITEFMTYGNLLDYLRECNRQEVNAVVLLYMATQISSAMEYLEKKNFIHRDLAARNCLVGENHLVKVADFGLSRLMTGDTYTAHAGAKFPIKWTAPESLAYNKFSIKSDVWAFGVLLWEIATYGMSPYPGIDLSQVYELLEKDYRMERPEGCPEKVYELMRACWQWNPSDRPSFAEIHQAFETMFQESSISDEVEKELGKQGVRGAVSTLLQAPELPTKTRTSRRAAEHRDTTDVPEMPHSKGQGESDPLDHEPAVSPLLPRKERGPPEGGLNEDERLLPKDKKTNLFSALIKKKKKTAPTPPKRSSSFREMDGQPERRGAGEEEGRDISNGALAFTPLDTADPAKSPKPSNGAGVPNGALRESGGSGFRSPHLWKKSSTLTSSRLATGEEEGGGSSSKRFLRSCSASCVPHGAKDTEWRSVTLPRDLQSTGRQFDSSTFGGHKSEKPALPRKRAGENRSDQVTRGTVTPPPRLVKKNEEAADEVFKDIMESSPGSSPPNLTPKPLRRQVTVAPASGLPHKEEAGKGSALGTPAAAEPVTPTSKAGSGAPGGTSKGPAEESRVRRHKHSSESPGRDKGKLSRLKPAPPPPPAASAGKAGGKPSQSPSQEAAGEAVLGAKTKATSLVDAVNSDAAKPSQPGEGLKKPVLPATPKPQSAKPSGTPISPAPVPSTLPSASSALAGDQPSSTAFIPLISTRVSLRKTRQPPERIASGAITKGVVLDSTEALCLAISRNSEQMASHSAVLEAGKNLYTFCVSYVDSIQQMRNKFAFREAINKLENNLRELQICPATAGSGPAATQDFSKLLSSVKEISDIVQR
Chain of Yes (P07947 whole entry): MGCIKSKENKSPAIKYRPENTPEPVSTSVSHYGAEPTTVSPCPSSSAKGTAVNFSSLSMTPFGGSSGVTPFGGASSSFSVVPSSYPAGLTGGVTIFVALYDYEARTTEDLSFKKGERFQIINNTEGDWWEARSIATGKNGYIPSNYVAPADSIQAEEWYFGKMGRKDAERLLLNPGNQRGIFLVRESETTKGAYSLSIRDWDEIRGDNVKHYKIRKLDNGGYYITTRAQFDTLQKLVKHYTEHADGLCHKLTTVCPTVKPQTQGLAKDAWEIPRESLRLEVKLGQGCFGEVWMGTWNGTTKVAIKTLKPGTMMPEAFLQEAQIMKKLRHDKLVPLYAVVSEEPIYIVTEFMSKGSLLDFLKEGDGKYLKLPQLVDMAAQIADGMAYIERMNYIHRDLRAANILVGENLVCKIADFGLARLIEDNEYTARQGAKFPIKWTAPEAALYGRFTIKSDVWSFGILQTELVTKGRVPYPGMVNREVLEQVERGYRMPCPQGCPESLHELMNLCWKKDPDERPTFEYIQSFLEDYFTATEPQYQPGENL
Chain of EGFR (P00533 25-1210): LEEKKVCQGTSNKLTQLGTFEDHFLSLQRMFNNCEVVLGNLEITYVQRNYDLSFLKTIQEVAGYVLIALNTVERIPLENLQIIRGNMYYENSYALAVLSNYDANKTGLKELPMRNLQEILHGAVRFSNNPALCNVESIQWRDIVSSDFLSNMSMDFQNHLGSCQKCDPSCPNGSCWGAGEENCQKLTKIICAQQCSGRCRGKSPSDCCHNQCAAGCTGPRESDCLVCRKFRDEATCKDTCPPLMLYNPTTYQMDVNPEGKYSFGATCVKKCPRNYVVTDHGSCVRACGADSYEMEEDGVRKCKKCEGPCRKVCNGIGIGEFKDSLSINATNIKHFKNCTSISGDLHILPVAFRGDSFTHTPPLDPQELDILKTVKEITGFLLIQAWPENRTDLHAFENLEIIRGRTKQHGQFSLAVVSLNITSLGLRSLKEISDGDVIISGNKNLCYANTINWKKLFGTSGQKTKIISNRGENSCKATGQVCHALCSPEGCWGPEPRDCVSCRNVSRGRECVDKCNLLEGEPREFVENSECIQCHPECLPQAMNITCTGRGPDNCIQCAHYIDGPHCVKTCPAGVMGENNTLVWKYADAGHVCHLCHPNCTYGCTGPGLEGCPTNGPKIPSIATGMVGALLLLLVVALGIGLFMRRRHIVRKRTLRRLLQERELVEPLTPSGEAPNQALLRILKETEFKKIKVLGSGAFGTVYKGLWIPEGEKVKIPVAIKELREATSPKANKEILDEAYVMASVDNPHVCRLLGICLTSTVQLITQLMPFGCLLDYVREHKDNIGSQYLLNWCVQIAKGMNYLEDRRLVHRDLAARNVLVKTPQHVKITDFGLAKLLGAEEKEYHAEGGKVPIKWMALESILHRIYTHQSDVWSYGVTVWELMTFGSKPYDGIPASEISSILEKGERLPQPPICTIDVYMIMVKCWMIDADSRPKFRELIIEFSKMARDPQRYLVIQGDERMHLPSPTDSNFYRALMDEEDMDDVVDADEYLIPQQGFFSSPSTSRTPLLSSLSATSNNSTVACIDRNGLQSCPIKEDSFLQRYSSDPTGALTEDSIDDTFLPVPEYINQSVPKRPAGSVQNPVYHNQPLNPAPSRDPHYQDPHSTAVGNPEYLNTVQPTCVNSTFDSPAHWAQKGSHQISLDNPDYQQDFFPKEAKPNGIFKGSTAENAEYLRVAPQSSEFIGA
Chain of Ret (P07949 29-1114): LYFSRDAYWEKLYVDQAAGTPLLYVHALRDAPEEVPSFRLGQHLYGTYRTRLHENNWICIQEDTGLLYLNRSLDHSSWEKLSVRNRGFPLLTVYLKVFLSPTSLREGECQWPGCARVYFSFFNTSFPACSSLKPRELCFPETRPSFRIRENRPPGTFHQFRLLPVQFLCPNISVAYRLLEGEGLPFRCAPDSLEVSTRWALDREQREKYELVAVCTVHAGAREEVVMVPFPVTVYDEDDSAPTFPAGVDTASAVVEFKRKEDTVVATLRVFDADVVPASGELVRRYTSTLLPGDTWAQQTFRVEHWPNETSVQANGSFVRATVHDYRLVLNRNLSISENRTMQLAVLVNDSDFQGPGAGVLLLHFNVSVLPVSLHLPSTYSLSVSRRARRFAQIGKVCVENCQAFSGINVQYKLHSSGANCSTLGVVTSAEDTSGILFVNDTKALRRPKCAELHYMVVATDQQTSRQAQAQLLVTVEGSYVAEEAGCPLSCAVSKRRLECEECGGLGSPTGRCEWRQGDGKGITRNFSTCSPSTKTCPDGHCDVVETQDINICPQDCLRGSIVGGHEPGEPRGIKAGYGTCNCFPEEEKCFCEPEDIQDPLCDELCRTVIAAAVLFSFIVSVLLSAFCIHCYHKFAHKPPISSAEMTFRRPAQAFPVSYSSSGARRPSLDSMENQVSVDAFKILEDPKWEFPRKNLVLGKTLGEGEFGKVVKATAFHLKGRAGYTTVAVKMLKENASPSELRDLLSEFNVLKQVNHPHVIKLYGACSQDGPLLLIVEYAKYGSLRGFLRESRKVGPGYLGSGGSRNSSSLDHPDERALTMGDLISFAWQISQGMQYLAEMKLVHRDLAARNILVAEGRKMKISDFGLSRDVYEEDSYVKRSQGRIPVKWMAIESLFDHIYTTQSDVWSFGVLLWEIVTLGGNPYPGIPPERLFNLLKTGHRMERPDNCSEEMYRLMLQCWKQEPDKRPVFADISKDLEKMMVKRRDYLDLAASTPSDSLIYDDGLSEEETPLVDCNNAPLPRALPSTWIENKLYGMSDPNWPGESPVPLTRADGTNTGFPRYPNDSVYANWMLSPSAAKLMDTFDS
Chain of BTK (Q06187 whole entry): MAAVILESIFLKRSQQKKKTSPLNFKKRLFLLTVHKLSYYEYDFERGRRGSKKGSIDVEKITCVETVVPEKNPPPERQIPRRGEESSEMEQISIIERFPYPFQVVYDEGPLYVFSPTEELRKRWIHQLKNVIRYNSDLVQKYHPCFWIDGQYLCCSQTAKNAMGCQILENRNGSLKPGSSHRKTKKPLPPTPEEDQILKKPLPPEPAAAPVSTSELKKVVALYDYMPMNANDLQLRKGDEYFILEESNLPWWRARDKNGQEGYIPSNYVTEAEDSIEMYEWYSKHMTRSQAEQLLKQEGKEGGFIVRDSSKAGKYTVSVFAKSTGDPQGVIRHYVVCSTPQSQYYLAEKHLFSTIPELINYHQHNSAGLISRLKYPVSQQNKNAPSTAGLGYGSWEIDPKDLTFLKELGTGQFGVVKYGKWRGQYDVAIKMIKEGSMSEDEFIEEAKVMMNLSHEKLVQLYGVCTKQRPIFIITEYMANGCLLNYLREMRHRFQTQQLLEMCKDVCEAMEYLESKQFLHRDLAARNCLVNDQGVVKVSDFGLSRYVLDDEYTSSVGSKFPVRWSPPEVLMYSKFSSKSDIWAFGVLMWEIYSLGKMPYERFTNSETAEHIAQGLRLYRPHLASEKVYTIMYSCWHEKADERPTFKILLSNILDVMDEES
Chain of CSK (P41240 whole entry): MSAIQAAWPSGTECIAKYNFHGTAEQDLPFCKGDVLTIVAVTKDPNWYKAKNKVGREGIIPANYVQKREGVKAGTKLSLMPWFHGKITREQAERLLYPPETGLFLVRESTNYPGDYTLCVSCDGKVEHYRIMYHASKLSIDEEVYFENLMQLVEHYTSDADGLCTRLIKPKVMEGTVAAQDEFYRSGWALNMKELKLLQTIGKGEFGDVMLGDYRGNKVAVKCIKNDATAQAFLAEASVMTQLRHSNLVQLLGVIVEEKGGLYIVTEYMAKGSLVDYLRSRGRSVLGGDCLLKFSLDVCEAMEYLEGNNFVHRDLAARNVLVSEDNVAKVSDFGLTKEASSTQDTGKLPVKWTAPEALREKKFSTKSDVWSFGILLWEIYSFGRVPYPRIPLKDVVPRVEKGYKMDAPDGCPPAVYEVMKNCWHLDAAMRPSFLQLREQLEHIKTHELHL

## COc1ccc(Cl)c(-c2c(Cl)n(C(C)(C)C)c3ncnc(N)c23)c1 (single isomer, unassigned) [2e-(R), 7-(tert-butyl)-6-chloro-5-(2-chloro-5-methoxyphenyl)-7H-pyrrolo[2,3d]pyrimidin-4-amine]
[1]; Abl relative to Yes
  IC50 of Kinase/IC50 of Yes: 10.0
[1]; Abl, 1000 nM, 1 µM
  % inhibition: 11%
[1]; Abl, 5000 nM
  % inhibition: 26%
[1]; Abl, 5000 nM, 5 µM
  % inhibition: 26%
[1]; Abl, error is standard deviation
  pIC50: < 5.00
[2]; 1000 nM
  inhibition at 1 µM: 3%
[2]; 5000 nM
  inhibition at 5 µM: 8%
[3]; 1000 nM
  S(40%): 0.11
[3]; 5000 nM
  S(40%): 0.44
[3]; Ret over Abl and Src
  augmentation of 5's inherent selectivity: 4 fold
[4]; 1000 nM
  inhibition at 1 µM: 24%
[4]; 5000 nM
  inhibition at 5 µM: 40%
[5]; 1000 nM
  inhibition at 1 µM: 21%
[5]; 5000 nM
  inhibition at 5 µM: 35%
[6]; 1000 nM, 1 µM
  % inhibition: 5%
[6]; 5000 nM
  inhibition at 5 µM: 26%
[7]; EGFR relative to Yes
  IC50 of Kinase/IC50 of Yes: >10.0
[7]; EGFR, 1000 nM, 1 µM
  % inhibition: −4%
[7]; EGFR, 5000 nM, 5 µM
  % inhibition: 0%
[7]; EGFR, error is standard deviation
  pIC50: < 5.00
[8]; 1000 nM
  inhibition at 1 µM: 6%
[8]; 5000 nM, 5 µM
  % inhibition: 18%
[9]; Ret relative to Yes
  IC50 of Kinase/IC50 of Yes: 2.07
[9]; Ret, 1000 nM, 1 µM
  % inhibition: 35%
[9]; Ret, 5000 nM
  % inhibition: 73%
[9]; Ret, 5000 nM, 5 µM
  % inhibition: 73%
[9]; Ret, error is standard deviation
  pIC50: 5.73
[10]; 1000 nM
  inhibition at 1 µM: 45%
[10]; 5000 nM
  inhibition at 5 µM: 77%
[11]; Yes relative to Yes
  IC50 of Kinase/IC50 of Yes: 1
[11]; Yes, 1000 nM, average of 2 runs
  inhibition at 1 µM: 53%
[11]; Yes, 5000 nM, average of 2 runs
  inhibition at 5 µM: 79%
[11]; Yes, error is standard deviation
  pIC50: 6.05
[12]; Src relative to Yes
  IC50 of Kinase/IC50 of Yes: 6.22
[12]; Src, error is standard deviation
  pIC50: 5.25
[13]; 1000 nM
  inhibition at 1 µM: 10%
[13]; 5000 nM, 5 µM
  % inhibition: 29%
[14]; 1000 nM
  inhibition at 1 µM: 19%
[14]; 5000 nM
  inhibition at 5 µM: 44%
[15]; 1000 nM
  inhibition at 1 µM: 23%
[15]; 5000 nM
  inhibition at 5 µM: 51%
[16]; 1000 nM
  inhibition at 1 µM: 19%
[16]; 5000 nM
  inhibition at 5 µM: 57%
[17]; 1000 nM, 1 µM
  % inhibition: 4%
[17]; 5000 nM
  inhibition at 5 µM: 13%
[18]; 1000 nM, 1 µM
  % inhibition: −2%
[18]; 5000 nM
  inhibition at 5 µM: 0%
[19]; 1000 nM, 1 µM
  % inhibition: 3%
[19]; 5000 nM
  inhibition at 5 µM: 32%
